Assay results: ChEMBL document CHEMBL3507680, “University of Dundee, Gates Library screen for HepG2 cell viability”
Where “and” joins values, the source holds several entries; their conditions need not be identical. Equal values may be shown once.

Assays:
[1] = Human HepG2 cell viability assay in 384 well format; assay type: toxicity, cell-based; set-up: dose 125 nL, time 70.5 hour; cytotoxicity at 70.5 h: concentration not given beside the values; settings: for cytotoxicity at 70.5 h: HepG2 cells, read-out: Inhibition; for Inhibition: hepg2, 70.5 h, 70.5 h
[2] = Human HepG2 cell viability dose-response assay; assay type: toxicity, cell-based

SMILES | cytotoxicity at 70.5 h [1] [%] | BOTTOM [2] | HILLSLOPE [2] | TOP [2] | pXC50 [2] | Inhibition [1]
O=C(Nc1cc(C(F)(F)F)c[nH]c1=O)c1ccco1 | 64 | -14.03 and -12.55 | 1.1 and 1.086 | 100 | 4.903 and 4.796 | –
CC1=Nc2c(c(=O)[nH]n2C(C)C)C(c2ccsc2)S1 (stereo not drawn) | – | – | – | – | – | -5.291% and -4.016%
CC1=Nc2c(c(=O)[nH]n2C2CCCCC2)C(c2ccc(C(=O)O)cc2)S1 (stereo not drawn) | – | – | – | – | – | -14.53% and -17.54%
Cc1cc(NC(=O)C(C)Cn2cncn2)no1 (stereo not drawn) | – | – | – | – | – | 6.977% and -4.493%
O=C(NCCCN1CCCCC1)c1ccc(-n2ccc3ccccc32)s1 | 64.9 | -3.023 and -2.579 | 5.041 and 5.956 | 103.2 and 102.3 | 5.01 and 4.975 | –
Cn1nc(C(=O)NCc2ccccn2)c2c1CCS(=O)(=O)C2 | 88.4 | 0 | 0 | 0 | < 4.53 | –
Cc1cccc(C)c1Nc1noc2c1CN(C(=O)c1cn(C)cn1)CC2 | 75.1 | -7.032 and -2.364 | 1.548 and 1.741 | 100 | 4.986 and 4.918 | –
CC(C)Nc1cc(-c2c[nH]nc2C2CCN(C(=O)C3CCC3)C2)ccn1 (stereo not drawn) | 95.8 | 5.771 and 12.22 | 3.68 and 3.705 | 97.15 and 97.9 | 6.593 and 6.589 | –
Fc1cccc(Nc2nc(N3CCCC3)nc3c2CNCC3)c1 | 80.4 | – | 8.053 and 11.8 | 102.5 and 101.7 | 5.055 and 5.01 | –
Cc1ccc(S(=O)(=O)N2C[C@H]3C[C@H](NC(=O)c4cc[nH]n4)[C@H]3C2)cc1 | 61.6 | -15.24 and -16.22 | 0.6106 and 0.5978 | 100 | 5.239 and 5.299 | –
COc1ccccc1NC(=O)c1ccc(C)n1C | 96 | -9.133 and -11.57 | 2.979 and 2.832 | 100 | 5.661 and 5.693 | –
Cc1cc(NC2CCc3nc(C(C)C)nn3C2)n2ncnc2n1 (stereo not drawn) | 84.4 | 0 | 0 | 0 | < 4.53 | –
Cc1n[nH]c(C2CN(CC(=O)NCCC3=CCCCC3)CCO2)n1 (stereo not drawn) | 76.6 | 0 | 0 | 0 | < 4.53 | –
Cc1cnc(CCN(C)C(=O)c2cccc(N(C)C)c2)s1 | 60.6 | 0 | 0 | 0 | < 4.53 | –
Cc1nn(C)cc1C(=O)Nc1cccc(CN2CCC(CO)CC2)c1 | 60.6 | 0 | 0 | 0 | < 4.53 | –
COCC(NC(=O)c1cn2ccsc2n1)c1ccnn1C (stereo not drawn) | 97.2 | 0 | 0 | 0 | < 4.53 | –
OC1COCCN(Cc2cc(-c3ccccc3OC(F)(F)F)no2)C1 (stereo not drawn) | 60 | 0 | 0 | 0 | < 4.53 | –
CCc1[nH]c2c(CNc3cc(C)nc(NC)n3)cc(C)cc2c1C | 98.3 | -3.677 and -3.483 | 3.229 and 3.201 | 103.4 and 104.1 | 5.247 and 5.258 | –
Cc1nc(CC(C)C)cc(C(=O)N2C[C@@H](N(C)C)[C@H](C(C)C)C2)n1 | 67 | 0 | 0 | 0 | < 4.53 | –
NCC1CCN(C2CCN(c3ccc(-c4ccco4)cc3)CC2)C1 (stereo not drawn) | 102 | -8.648 and -4.813 | 7.574 and 7.233 | 102.1 and 102.4 | 5.593 and 5.596 | –
CC(C)c1cc(CN2CCNCC2)no1 | 94.6 | -2.548 and -2.696 | – | 101.6 and 102.2 | 4.866 and 4.991 | –
O=C(CCNCC(F)(F)F)N1CCC(Nc2cccnn2)CC1 | 66.1 | 0 | 0 | 0 | < 4.53 | –
Cc1noc(CN2CCOC(CN(C)C)C2)n1 (stereo not drawn) | 70.1 | 0 | 0 | 0 | < 4.53 | –
Cn1cc(C2CCCN2Cc2csc(-c3ccsc3)n2)cn1 (stereo not drawn) | -0.271 | – | – | – | – | –
CS(=O)(=O)NCCCN1CCCC1c1ccccc1 (stereo not drawn) | 20 | – | – | – | – | –
Cc1cnn(CC2CCCN2Cc2nnsc2Cl)c1 (stereo not drawn) | 31.9 | – | – | – | – | –

SMILES | cytotoxicity at 70.5 h [1] [%] | BOTTOM [2] | HILLSLOPE [2] | TOP [2] | pXC50 [2] | Inhibition [1]
O=C(c1ccc2c(c1)COC2)N1CCN(CC2CC2)CC1 | -7.78 | – | – | – | – | –
CCCc1cc(C(=O)N2CCCC(n3ccnc3C)C2)[nH]n1 (stereo not drawn) | 32.7 | – | – | – | – | –
c1ncn(CC2CCCN(Cc3nc(C4CC4)no3)C2)n1 (stereo not drawn) | 31.5 | – | – | – | – | –
COc1ccsc1C(=O)N1CCCC(n2nc(C)nc2C)C1 (stereo not drawn) | 3.22 | – | – | – | – | –
Cc1noc(C)c1C(=O)N1CCCC1c1c(C)nn(C)c1Cl (stereo not drawn) | 103 | 0 | 0 | 0 | < 4.53 | –
CCCc1n[nH]c(C2CN(Cc3nnc(C4CC4)o3)CCO2)n1 (stereo not drawn) | 8.7 | – | – | – | – | –
COc1ccc(CCN2CCCC2Cn2nc(C)nc2C)cc1 (stereo not drawn) | 17.7 | – | – | – | – | –
Cc1ccoc1-c1nnc(CNCCn2cccn2)o1 | 31.8 | – | – | – | – | –
CCc1nc(CN(C)C2CCN(Cc3cnc(C)cn3)C2)no1 (stereo not drawn) | 66 | 0 | 0 | 0 | < 4.53 | –
CCc1n[nH]c(C2CN(C(=O)c3cc4c(s3)CCCC4)CCO2)n1 (stereo not drawn) | 4.71 | – | – | – | – | –
CN1CCOC(CNCc2coc(-c3ccccc3)n2)C1 (stereo not drawn) | -0.149 | – | – | – | – | –
CN1CCOC(CNCCc2ccccn2)C1 (stereo not drawn) | -1.1 | – | – | – | – | –
Cc1ccc(S(=O)(=O)NC(=O)c2cccc(OCC(N)=O)c2)s1 | -3.78 | – | – | – | – | –
COc1cccc(-n2c(C)cc(C(=O)O)c2C)c1 | -5.75 | – | – | – | – | –
CC1CCCN(C(=O)CCc2cccnc2)C1 (stereo not drawn) | -3.28 | – | – | – | – | –
N#Cc1cnn(-c2ccc(C(=O)Nc3ccccn3)cc2)c1N | 25.3 | – | – | – | – | –
COc1ccccc1C(O)CNC(=O)NCc1cccnc1OC (stereo not drawn) | 6.04 | – | – | – | – | –
Cn1c(NCC(O)c2ccc(F)cc2F)c(C#N)c(=O)n(C)c1=O (stereo not drawn) | -5.92 | – | – | – | – | –
COc1ccccc1C(O)CNC(=O)Nc1ncccc1C (stereo not drawn) | 7.49 | – | – | – | – | –
CC(NC(=O)NCCn1ccnc1)c1ccc2c(c1)NC(=O)CO2 (stereo not drawn) | -0.375 | – | – | – | – | –
NC(=O)c1ccc(S(=O)(=O)NC2CCN(Cc3ccccc3)C2=O)cc1 (stereo not drawn) | -8.89 | – | – | – | – | –
c1coc(-c2nnc(CN3CCOC(Cn4cccn4)C3)o2)c1 (stereo not drawn) | 6.43 | – | – | – | – | –
COc1ccc(NC(=O)c2ccc(-n3ncc(C#N)c3N)cc2)cn1 | 3.5 | – | – | – | – | –
Cc1cccc(C2(CNC(=O)CCN3C(=O)CCC3=O)CCCC2)c1 | 21 | – | – | – | – | –
CC(C)c1n[nH]c(C(=O)Nc2cc[nH]n2)c1Br | 7.8 | – | – | – | – | –
COc1ccc(C2=CCN(C(=O)CN(C)CC(C)C#N)CC2)cc1 (stereo not drawn) | 44.4 | – | – | – | – | –

SMILES | cytotoxicity at 70.5 h [1] [%] | BOTTOM [2] | HILLSLOPE [2] | TOP [2] | pXC50 [2] | Inhibition [1]
CN1CCOC(CNCc2cccc(OCC(F)(F)F)c2)C1 (stereo not drawn) | -1.74 | – | – | – | – | –
CN1CCOC(CNCc2cccc(OCc3ccccn3)c2)C1 (stereo not drawn) | -3.38 | – | – | – | – | –
Cc1nc(C)n(CC2CCCN2CCOc2ccc(C#N)cc2)n1 (stereo not drawn) | 6.36 | – | – | – | – | –
Fc1ccc(-c2cnc(CN3CCCC3Cn3cccn3)o2)cc1 (stereo not drawn) | -8.12 | – | – | – | – | –
OC(CN1CCC(c2ccn[nH]2)CC1)c1cccc(F)c1 (stereo not drawn) | -28.7 | – | – | – | – | –
CS(=O)(=O)c1ccc(C(O)CN2CCC(c3ccn[nH]3)CC2)cc1 (stereo not drawn) | -17.4 | – | – | – | – | –
Cc1noc(CN2CCC(c3ccnn3CCO)CC2)n1 | -13.4 | – | – | – | – | –
CCCNC(=O)CNc1cc(C#N)ccc1OCC | 14.1 | – | – | – | – | –
Cc1ccn(-c2ccc(C(=O)N3CCCC(C(N)=O)C3)cc2)n1 (stereo not drawn) | -9.79 | – | – | – | – | –
CN(Cc1cnn(C)c1)C(=O)NCc1nnc2n1CCC2 | -25.4 | – | – | – | – | –
N#Cc1ccc(OCCCN2CCc3cncnc3C2)cc1 | -0.112 | – | – | – | – | –
CC1=NN(c2ccc(C(=O)N3CCCC(n4ccnc4)C3)cc2)CC1 (stereo not drawn) | -17.1 | – | – | – | – | –
Cc1cccc(NC2CCN(C(=O)Nc3cc(F)cc(F)c3)CC2)n1 | 42.8 | – | – | – | – | –
Cn1cnc2c1CCN(CCCOc1ccc(C#N)cc1)C2 | -10.6 | – | – | – | – | –
Cc1cc(C2CCCN(CCCNS(C)(=O)=O)C2)n[nH]1 (stereo not drawn) | -25.3 | – | – | – | – | –
Cc1cc(C2CCCN(CCc3ccccn3)C2)n[nH]1 (stereo not drawn) | -17 | – | – | – | – | –
Cc1noc(C(C)C)c1C(=O)NCC(c1cccc(F)c1)N(C)C (stereo not drawn) | -21.3 | – | – | – | – | –
Cc1cnn(CC2CCCN2C(=O)CCc2nc3ccccc3[nH]2)c1 (stereo not drawn) | -15.5 | – | – | – | – | –
O=C(CCc1nccs1)N1CCN(c2ccccc2F)CC1 | 34.9 | – | – | – | – | –
Cc1noc2ncc(C(=O)N3CCCC3c3cnn(C)c3)cc12 (stereo not drawn) | -6.59 | – | – | – | – | –
Cc1nc(Nc2ncc(C)s2)cc(C2CCCN2)n1.Cl (stereo not drawn) | 95.5 | 26.01 and 24.5 | 4.462 and 3.743 | 100.2 and 98.81 | 5.319 and 5.315 | –
COc1ccc(CNC(Cc2ccsc2)c2ccc(C)cn2)cc1OC.Cl (stereo not drawn) | 91.5 | -6.281 and -3.457 | 2.493 and 1.7 | 86.66 and 100 | 5.471 and 5.341 | –
Cl.Cl.Clc1cccc(C[C@@H]2NCCC[C@@H]2Nc2cccc(Cl)c2)c1 | 105 | – | 19.49 and 7.416 | 101.7 and 101.8 | 5.461 and 5.474 | –
CC(C)N1CCN(c2ccc3ccc(C(=O)NC4CCCC4)cn23)CC1.O=C(O)C(F)(F)F | 101 | 0 | 0 | 0 | < 4.53 | –
Cc1ccc2nc(CNCCCOc3ccccc3)cc(O)c2c1 [UCSF924] | -2.02 | – | – | – | – | –
